{"source": "patent US20220047552A1", "about": "“RAF-1 KINASE INHIBITOR COMPOUNDS FOR SKELETAL MUSCLE MODULATION, METHODS AND USES THEREOF” (SOCIETE DES PRODUITS NESTLE S.A., priority 2018, published 2022)", "key": {"[1]": {"tested_on": "human primary muscle stem cells", "test": "Assay for muscle stem cell commitment (Pax7/MyoD immunofluorescence high content screening)", "assay_type": "cell-based", "conditions": "human primary myoblasts, 96 hours", "excerpt": "The inventors developed a high content screening to test in vitro compounds on human primary adult muscle cells. Human Skeletal Muscle Myoblasts (HSMM) were purchased from Lonza (https://bioscience.lonza.com). These cells were isolated from the upper arm or leg muscle tissue of normal donors and used after the second passage. Several donors have been tested to ensure cell viability and purity before selecting the final donor which was a person. The primary screening assay was based on the high content detection of two important myogenic regulatory factors (Pax7 and MyoD) by immunofluorescence. Pax7 and MyoD are the major hallmarks of muscle stem cell stemness and commitment and can be used to monitor muscle stem cell progeny. In particular, Pax7 marks early amplification while MyoD is a later marker for myogenic commitment, and combinations of these markers define the different states of proliferation, differentiation and self-renewal. […] Human primary myoblasts were seeded in 384 well plates at a density of 1'000 cells per well in skeletal muscle growth medium (SKM-M, AMSbio). For treatment, compounds were directly added to the myoblast cultures 16 hours after initial plating. All cultures were then grown for 96 hours. […] Custom module analysis based on Multi-Wavelength Cell Scoring of the MetaXpress software was used for quantification."}, "[2]": {"tested_on": "human primary muscle cells", "test": "Assay for myogenesis (troponin-T myotube detection)", "assay_type": "cell-based", "conditions": "human primary myoblasts, differentiation medium, 96 hours, dose dependent response", "excerpt": "In order to confirm the results from the primary assay described above, a secondary assay for myogenesis in vitro on all the hits obtained in this primary screening assay. This secondary assay focused on the later stage of myogenesis when the muscle cells fuse together and form multinucleated myotubes. This assay was based on the detection of the mature troponin-T protein that is expressed in myotubes. In particular, two measurements were made: Fusion factor, which is the % of nuclei that are inside the multinucleated myotubes compare to total nuclei and give a readout for muscle cell differentiation. Myotube area, which is measured based on the Troponin T staining and give a readout on the myotube size and muscle fiber growth. Human primary myoblasts were seeded in 384 well plates at a density of 3'000 cells per well in skeletal muscle growth medium (SKM-M, AMSbio). After one day, the differentiation is induced by a medium change. For treatment, compounds were directly added to the myoblast cultures for 96 hours. Myotubes were stained for TroponinT expression using antibodies directed against TroponinT and counterstained with Hoechst 33342 to visualize cell nuclei. Image acquisition was performed using the ImageXpress (Molecular Devices) platform. Custom module analysis based on Multi-Wavelength Cell Scoring of the MetaXpress software was used for quantification."}}, "data": [{"smiles": "O=C1Nc2ccc(I)cc2C1=Cc1cc(Br)c(O)c(Br)c1", "note": "[GW5074, 3-(3,5-Dibromo-4-hydroxy-benzylidene)-5-iodo-1,3-dihydro-indol-2-one]", "values": [{"measurement": "proportion of MyoD+ cells as percent of total cell number (myogenic commitment)", "setting": "[1]; FIG. 1A, dose-dependent response, MyoD+ = Pax7-/MyoD+", "value": "increase in the proportion of MyoD+ cells"}, {"measurement": "number of Pax7+ cells (expansion of muscle stem cells)", "setting": "[1]; FIG. 1B, dose dependent response, Pax7+ regardless of MyoD expression", "value": "increase in Pax7+ cells"}, {"measurement": "myogenic differentiation (Fusion Factor, percent nuclei within troponinT-positive myotubes)", "setting": "[2]; FIG. 2A", "value": "enhanced myogenic differentiation"}, {"measurement": "myofiber growth (area covered by troponinT-positive myotubes)", "setting": "[2]; FIG. 2B", "value": "enhanced"}]}]}
